Columns and labels:
[1] = compound: CN1CCN(C(=O)c2ccc3cc(CCNc4ncnc5ccc(C#N)cc45)ccc3c2)CC1 [senexin b]
[2] = compound: CN(C)C/C=C/C(=O)Nc1ccc(O[C@@H]2CCC[C@@H](Nc3ncc(Cl)c(-c4c[nH]c5ccccc45)n3)C2)cc1 [BSJ-01-175]
[3] = compound: Cc1cc(Nc2ncc(Cl)c(Nc3ccccc3S(=O)(=O)C(C)C)n2)c(OC(C)C)cc1C1CCNCC1 [Ceritinib/LDK378]
[4] = compound: CNCc1ccc(-c2[nH]c3cc(F)cc4c3c2CCNC4=O)cc1 [Rucaparib]
[5] = compound: O=C1NC(=O)[C@@H](c2cn3c4c(cccc24)CCC3)[C@@H]1c1c[nH]c2ccccc12 [Tivantinib/ARQ197]
[6] = compound: CC(=O)O[C@H]1C(=O)[C@@]2(C)[C@H]([C@H](OC(=O)c3ccccc3)[C@]3(O)C[C@H](OC(=O)[C@H](O)[C@@H](NC(=O)c4ccccc4)c4ccccc4)C(C)=C1C3(C)C)[C@]1(OC(C)=O)CO[C@@H]1C[C@@H]2O [Paclitaxel]
[7] = compound: C[C@@H]1COCCN1c1cc(C2([S@](C)(=N)=O)CC2)nc(-c2cc[nH]c3nccc2-3)n1 [AZD6738]
[8] = compound: T1, CN(C)C/C=C/C(=O)Nc1ccc(C(=O)N2CCC[C@@H](Nc3ncc(Cl)c(-c4c[nH]c5ccccc45)n3)C2)cc1 [THZ531]
[9] = compound: COc1cc2c(Oc3ccc4[nH]c(C)cc4c3F)ncnc2cc1OCCCN1CCCC1 [Cediranib/AZD2171]
[10] = compound: CS(=O)(=O)N1CCN(Cc2cc3nc(-c4cccc5[nH]ncc45)nc(N4CCOCC4)c3s2)CC1 [Pictilisib/GDC0941]
[11] = compound: CC(=O)c1c(C)c2cnc(Nc3ccc(N4CCN(CCOCCOCCOCCNC(=O)COc5cccc6c5C(=O)N(C5CCC(=O)NC5=O)C6=O)CC4)cn3)nc2n(C2CCCC2)c1=O [BSJ-03-123]; assay: GR value, 72 h; higher = faster growth (1 = untreated, <0 = killing);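 further: breast cancer and non-malignant breast epithelial lines, nine half-log doses, viable cells counted by Hoechst and LIVE/DEAD dye imaging versus time-zero plates and DMSO controls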
[12] = compound: CCc1cnn2c(NCc3ccc[n+]([O-])c3)cc(N3CCCC[C@H]3CCO)nc12; assay: as above
[13] = compound: CCN1CCN(Cc2ccc(Nc3ncc(F)c(-c4cc(F)c5nc(C)n(C(C)C)c5c4)n3)nc2)CC1; assay: as above
[14] = compound: C=CC(=O)Nc1ccc(C(=O)Nc2[nH]nc3c2CN(C(=O)N[C@H](CN(C)C)c2ccccc2)C3(C)C)cc1 [YKL-5-124]; assay: as above
[15] = compound: CN(C)C(=O)c1cc2cnc(Nc3ccc(N4CCNCC4)cn3)nc2n1C1CCCC1 [LEE011/Ribociclib]; assay: as above
[16] = compound: CC(=O)c1c(C)c2cnc(Nc3ccc(N4CCNCC4)cn3)nc2n(C2CCCC2)c1=O; assay: as above
[17] = compound: CN(C)C/C=C/C(=O)Nc1ccc(C(=O)Nc2cccc(Nc3ncc(Cl)c(-c4c[nH]c5ccccc45)n3)c2)cc1 [THZ1]; assay: as above
[18] = compound: T1, THZ531; assay: as above
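Wherever GR50, 72 h is given: breast cancer and non-malignant breast epithelial cell lines, Deep Dye Drop or Dye Drop imaging, nine half-log doses, GR normalized to time-zero plates and DMSO-only controls.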

## SUM159
[1]
  GR50, 72 h: > 10 µM
[2]
  GR50, 72 h: 0.0681 µM
[3]
  GR50, 72 h: 2.1 µM
[4]
  GR50, 72 h: > 10 µM
[5]
  GR50, 72 h: 0.408 µM
[6]
  GR50, 72 h: 0.00542 µM
[7]
  GR50, 72 h: 9.98 µM
[8]
  GR50, 72 h: > 1 µM
[9]
  GR50, 72 h: > 10 µM
[10]
  GR50, 72 h: 4.53 µM
[11]; 0.001 µM
  GR value: 0.918 GR
[11]; 0.003162 µM
  GR value: 0.925 GR
[11]; 0.01 µM
  GR value: 0.897 GR
[11]; 0.03162 µM
  GR value: 0.826 GR
[11]; 0.1 µM
  GR value: 0.826 GR
[11]; 0.3162 µM
  GR value: 0.797 GR
[11]; 1 µM
  GR value: 0.687 GR
[11]; 3.162 µM
  GR value: 0.526 GR
[11]; 10 µM
  GR value: -0.042 GR
[12]; 0.0001 µM
  GR value: 1.01 GR
[12]; 0.0003162 µM
  GR value: 1.01 GR
[12]; 0.001 µM
  GR value: 1.02 GR
[12]; 0.003162 µM
  GR value: 1.02 GR
[12]; 0.01 µM
  GR value: 0.937 GR
[12]; 0.03162 µM
  GR value: -0.0092 GR
[12]; 0.1 µM
  GR value: -0.0413 GR
[12]; 0.3162 µM
  GR value: -0.0777 GR
[12]; 1 µM
  GR value: -0.119 GR
[13]; 0.001 µM
  GR value: 0.989 GR
[13]; 0.003162 µM
  GR value: 0.962 GR
[13]; 0.01 µM
  GR value: 0.897 GR
[13]; 0.03162 µM
  GR value: 0.773 GR
[13]; 0.1 µM
  GR value: 0.662 GR
[13]; 0.3162 µM
  GR value: 0.558 GR
[13]; 1 µM
  GR value: 0.405 GR
[13]; 3.162 µM
  GR value: 0.308 GR
[13]; 10 µM
  GR value: -0.0742 GR
[14]; 0.001 µM
  GR value: 0.554 GR
[14]; 0.003162 µM
  GR value: 0.292 GR
[14]; 0.01 µM
  GR value: 0.169 GR
[14]; 0.03162 µM
  GR value: 0.149 GR
[14]; 0.1 µM
  GR value: 0.136 GR
[14]; 0.3162 µM
  GR value: 0.0731 GR
[14]; 1 µM
  GR value: 0.0819 GR
[14]; 3.162 µM
  GR value: 0.0501 GR
[14]; 10 µM
  GR value: -0.146 GR
[15]; 0.001 µM
  GR value: 0.942 GR
[15]; 0.003162 µM
  GR value: 0.892 GR
[15]; 0.01 µM
  GR value: 0.835 GR
[15]; 0.03162 µM
  GR value: 0.814 GR
[15]; 0.1 µM
  GR value: 0.786 GR
[15]; 0.3162 µM
  GR value: 0.73 GR
[15]; 1 µM
  GR value: 0.769 GR
[15]; 3.162 µM
  GR value: 0.63 GR
[15]; 10 µM
  GR value: 0.449 GR
[16]; 0.0003162 µM
  GR value: 1 GR
[16]; 0.001 µM
  GR value: 0.988 GR
[16]; 0.003162 µM
  GR value: 0.987 GR
[16]; 0.01 µM
  GR value: 0.947 GR
[16]; 0.03162 µM
  GR value: 0.881 GR
[16]; 0.1 µM
  GR value: 0.755 GR
[16]; 0.3162 µM
  GR value: 0.64 GR
[16]; 1 µM
  GR value: 0.574 GR
[16]; 3.162 µM
  GR value: 0.468 GR
[17]; 0.0001 µM
  GR value: 1.01 GR
[17]; 0.0003162 µM
  GR value: 0.974 GR
[17]; 0.001 µM
  GR value: 0.974 GR
[17]; 0.003162 µM
  GR value: 0.963 GR
[17]; 0.01 µM
  GR value: 0.99 GR
[17]; 0.03162 µM
  GR value: 0.955 GR
[17]; 0.1 µM
  GR value: 0.809 GR
[17]; 0.3162 µM
  GR value: 0.646 GR
[17]; 1 µM
  GR value: -0.112 GR
[18]; 0.0001 µM
  GR value: 0.957 GR
[18]; 0.0003162 µM
  GR value: 0.95 GR
[18]; 0.001 µM
  GR value: 0.98 GR
[18]; 0.003162 µM
  GR value: 0.972 GR
[18]; 0.01 µM
  GR value: 0.974 GR
[18]; 0.03162 µM
  GR value: 1.03 GR
[18]; 0.1 µM
  GR value: 0.979 GR
[18]; 0.3162 µM
  GR value: 0.965 GR
[18]; 1 µM
  GR value: 0.61 GR

## SUM229PE
[1]
  GR50, 72 h: > 10 µM
[2]
  GR50, 72 h: 0.0424 µM
[3]
  GR50, 72 h: 1.68 µM
[4]
  GR50, 72 h: > 10 µM
[5]
  GR50, 72 h: 0.083 µM
[6]
  GR50, 72 h: 0.00176 µM
[7]
  GR50, 72 h: 3.34 µM
[8]
  GR50, 72 h: 0.314 µM
[9]
  GR50, 72 h: 8.64 µM
[10]
  GR50, 72 h: 3.92 µM
[11]; 0.001 µM
  GR value: 0.887 GR
[11]; 0.003162 µM
  GR value: 0.881 GR
[11]; 0.01 µM
  GR value: 0.87 GR
[11]; 0.03162 µM
  GR value: 0.857 GR
[11]; 0.1 µM
  GR value: 0.758 GR
[11]; 0.3162 µM
  GR value: 0.785 GR
[11]; 1 µM
  GR value: 0.568 GR
[11]; 3.162 µM
  GR value: 0.497 GR
[11]; 10 µM
  GR value: 0.114 GR
[12]; 0.0001 µM
  GR value: 1.04 GR
[12]; 0.0003162 µM
  GR value: 1.02 GR
[12]; 0.001 µM
  GR value: 0.991 GR
[12]; 0.003162 µM
  GR value: 1.01 GR
[12]; 0.01 µM
  GR value: 0.796 GR
[12]; 0.03162 µM
  GR value: -0.122 GR
[12]; 0.1 µM
  GR value: -0.194 GR
[12]; 0.3162 µM
  GR value: -0.203 GR
[12]; 1 µM
  GR value: -0.209 GR
[13]; 0.001 µM
  GR value: 0.924 GR
[13]; 0.003162 µM
  GR value: 0.888 GR
[13]; 0.01 µM
  GR value: 0.831 GR
[13]; 0.03162 µM
  GR value: 0.727 GR
[13]; 0.1 µM
  GR value: 0.611 GR
[13]; 0.3162 µM
  GR value: 0.56 GR
[13]; 1 µM
  GR value: 0.439 GR
[13]; 3.162 µM
  GR value: 0.343 GR
[13]; 10 µM
  GR value: 0.284 GR
[14]; 0.001 µM
  GR value: 0.467 GR
[14]; 0.003162 µM
  GR value: 0.321 GR
[14]; 0.01 µM
  GR value: 0.295 GR
[14]; 0.03162 µM
  GR value: 0.291 GR
[14]; 0.1 µM
  GR value: 0.27 GR
[14]; 0.3162 µM
  GR value: 0.225 GR
[14]; 1 µM
  GR value: 0.238 GR
[14]; 3.162 µM
  GR value: 0.17 GR
[14]; 10 µM
  GR value: -0.0733 GR
[15]; 0.001 µM
  GR value: 0.91 GR
[15]; 0.003162 µM
  GR value: 0.911 GR
[15]; 0.01 µM
  GR value: 0.822 GR
[15]; 0.03162 µM
  GR value: 0.806 GR
[15]; 0.1 µM
  GR value: 0.758 GR
[15]; 0.3162 µM
  GR value: 0.722 GR
[15]; 1 µM
  GR value: 0.728 GR
[15]; 3.162 µM
  GR value: 0.633 GR
[15]; 10 µM
  GR value: 0.562 GR
[16]; 0.0003162 µM
  GR value: 0.988 GR
[16]; 0.001 µM
  GR value: 0.983 GR
[16]; 0.003162 µM
  GR value: 0.933 GR
[16]; 0.01 µM
  GR value: 0.906 GR
[16]; 0.03162 µM
  GR value: 0.848 GR
[16]; 0.1 µM
  GR value: 0.711 GR
[16]; 0.3162 µM
  GR value: 0.563 GR
[16]; 1 µM
  GR value: 0.536 GR
[16]; 3.162 µM
  GR value: 0.392 GR
[17]; 0.0001 µM
  GR value: 1 GR
[17]; 0.0003162 µM
  GR value: 1 GR
[17]; 0.001 µM
  GR value: 1.04 GR
[17]; 0.003162 µM
  GR value: 0.953 GR
[17]; 0.01 µM
  GR value: 0.65 GR
[17]; 0.03162 µM
  GR value: 0.283 GR
[17]; 0.1 µM
  GR value: -0.0615 GR
[17]; 0.3162 µM
  GR value: -0.216 GR
[17]; 1 µM
  GR value: -0.297 GR
[18]; 0.0001 µM
  GR value: 1.03 GR
[18]; 0.0003162 µM
  GR value: 0.991 GR
[18]; 0.001 µM
  GR value: 0.943 GR
[18]; 0.003162 µM
  GR value: 1.01 GR
[18]; 0.01 µM
  GR value: 1.07 GR
[18]; 0.03162 µM
  GR value: 1.08 GR
[18]; 0.1 µM
  GR value: 0.915 GR
[18]; 0.3162 µM
  GR value: 0.506 GR
[18]; 1 µM
  GR value: -0.133 GR

From the supplement of paper PMC9663587
